# Tests used:
# mTORC1 pathway in heart = assay: Chronic 6-week treatment: heart immunoblots; format: in vivo; details: N171-82Q mice, 160 mg/kg daily 6 weeks, 1 hour after dosing
# Method: Specific regions of the brain and heart were homogenized using a Next Advance Bullet Blender Storm in Lysis Buffer (Cell lysis buffer: 1% Triton X-100, 50 mM HEPES pH 7.4, 100 mM sodium chloride, 2 mM EDTA, 10 mM Beta-glycerophosphate, 10 mM Sodium pyrophosphate, and 1 protease inhibitor) at 4°C. Lysates were cleared by centrifugation at 13,200 rpm at 4°C for 10 minutes. Equal amounts of total protein from each sample were denatured and, resolved by SDS-PAGE. Membranes were imaged using the LI-COR imaging system. Proteins levels are normalized to tubulin, actin or GAPDH levels and further normalized to vehicle treated mice for each tissue.
# Fig 5 Oral dosing with NV-5297 over 6 weeks improves cardiac function and activates the mTORC1 pathway. (A) Representative M-mode echocardiograms from transthoracic echocardiography at 6 weeks and 12 weeks of vehicle and NV-5297 treated N171-82Q males. (B) Heart weight corrected for the animal’s standard length (tibia length) at 12 weeks. (C) Left ventricular measurements obtained by transthoracic echocardiography by deducting the end treatment (12 weeks) from the baseline (6 weeks) measurements. Variation in cardiac output [CO], ejection fraction [EF], fractional shortening [FS], stroke volume (SV) and Heart rate [HR]. (D) Representative immunoblots for normalized phosphorylated S6 (^S240/244pS6), S6, phosphorylated Akt (^S437pAkt), Akt, phosphorylated mTOR (^S2448pmTOR), mTOR, phosphorylated 4E-BP1 (^Thr37/46p4E-BP1), 4E-BP1 and Actin in homogenized heart. (E) Quantification of the immunoblots for homogenized heart isolated 1 hour after oral dosing with NV-5297 (160 mg/kg; n = 14) normalized to loading control levels and further normalized to vehicle (Veh) treated mice (n = 15). Data are presented as mean ± SEM. *P ≤ 0.05, **P ≤ 0.01, ***P ≤ 0.001 (unpaired Kruskal-Wallis test with Dunn’s multiple comparison test [B], unpaired one-tailed Student’s t-tests [C, E pmTOR] with a Welch’s correction [pS6/S6, pmTOR/mTOR] or a Mann-Whitney test [pAkt/Akt, p4E-BP1/4E-BP1]).
# [1] = target: T1, Sestrin2/GATOR2 interaction (Homo sapiens, UniProt P58004); assay: Intact cells-based Sestrin2/GATOR2 protein-protein interaction assay, Flag-WDR24 293T cells; format: cell-based; details: 10 minutes
# T1 construct: endogenous in cells; host or cells: Flag-WDR24 293T (HEK293T) cells
# T1 sequence (P58004 1-480): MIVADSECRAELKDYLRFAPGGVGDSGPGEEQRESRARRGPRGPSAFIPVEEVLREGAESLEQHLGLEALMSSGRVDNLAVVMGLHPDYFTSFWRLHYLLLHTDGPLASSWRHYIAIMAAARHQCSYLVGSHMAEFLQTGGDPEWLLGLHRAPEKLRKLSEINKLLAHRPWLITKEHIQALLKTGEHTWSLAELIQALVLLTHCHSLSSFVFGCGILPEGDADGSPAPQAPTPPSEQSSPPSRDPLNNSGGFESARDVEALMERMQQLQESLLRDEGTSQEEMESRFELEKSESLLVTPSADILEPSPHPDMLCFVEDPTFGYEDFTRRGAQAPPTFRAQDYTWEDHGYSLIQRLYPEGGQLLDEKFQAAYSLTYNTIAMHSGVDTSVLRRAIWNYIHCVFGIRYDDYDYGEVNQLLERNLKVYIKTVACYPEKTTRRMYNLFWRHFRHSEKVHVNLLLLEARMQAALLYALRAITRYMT
# Method: Flag-WDR24 293T cells were washed and placed in leucine-free DMEM supplemented 10% dFBS for 50 minutes followed by treatment with NV-5297, leucine or vehicle for 10 minutes. Cells were rinsed once with ice-cold PBS and immediately lysed with Triton lysis buffer (1% Triton, 10 mM β-glycerol phosphate, 10 mM pyrophosphate, 40 mM Hepes pH 7.4, 2.5 mM MgCl2 and 1 tablet of EDTA-free protease inhibitor). The cell lysates were cleared by centrifugation at 13,200 rpm at 4°C in a microcentrifuge for 10 minutes. Prior to immunoprecipitations, an aliquot of lysate was taken for SDS-PAGE and immunoblotting for pS6K1, S6K1 and tubulin. For anti-FLAG immunoprecipitations, the FLAG-M2 affinity gel was washed 3 times with Triton lysis buffer, and 30 μl of a 50/50 slurry of the FLAG-M2 affinity gel was then added to approximately 2 mg of clarified cell lysates and incubated with rotation for 3 hours at 4°C. Following immunoprecipitation, the beads were washed one time with Triton wash buffer containing 500 mM NaCl. Immunoprecipitated proteins were denatured, resolved by SDS-PAGE, and analyzed by immunoblotting.
# Next, Sestrin2/GATOR2 protein-protein interactions in response to NV-5297 were measured using cell-free assays and in vitro. For this, HEK293T cells stably expressing flag-WDR24, a component of GATOR2 [44], were used. The cell-free assays utilized Sestrin2/GATOR2 complexes immunoprecipitated from amino acid-starved cells with an anti-flag antibody.
smiles,measurement,setting,value
"CC(C)(C[C@H](N)C(=O)O)C(F)(F)F [NV-5297, (S)-2-amino-5,5,5-trifluoro-4,4-dimethylpentanoic acid]",heart p4E-BP1 level versus controls,mTORC1 pathway in heart,elevated
same,heart pS6 level versus controls,mTORC1 pathway in heart,elevated
same,heart pmTOR level versus controls,mTORC1 pathway in heart,elevated
same,Sestrin2/GATOR2 interaction (GATOR2-associated Sestrin2),"[1]; added to cell cultures, leucine-starved flag-WDR24 HEK293T cells",disrupted the Sestrin2/GATOR2 interaction in a dose-dependent manner
same,p70S6K1 (T389 pS6K1) level,"[1]; leucine-starved flag-WDR24 HEK-293T cells, S1C Fig",increased p70S6K1 in a dose-dependent manner
